# Measured values as given in patent US20250296971A1, “GASTRIC INHIBITORY PEPTIDE RECEPTOR LIGANDS” (priority 2021, published 2025).
# Like-named read-outs stand apart in the source and are kept apart here. *1 amine or outer side, *2 acyl side, *3 side chain or, on linkers, in order; H or OH if unused. Where a SMILES comes first, the peptide text is derived from it. Bridges are numbered along the chain shown (N, C = ends). [ ]: non-standard residue; d: D form. The star is where a group is joined. X5 = NC(=O)[C@H](CCCCNC(=O)CN1CCN(CC(=O)O)CCN(CC(=O)O)CCN(CC(=O)O)CC1)NC(=O)CCC(=O)NCCCOCCOCCOCCCN*; X3 = O=C(O)CN1CCN(CC(=O)O)CCN(CC(=O)NCCCOCCOCCOCCCN*)CCN(CC(=O)O)CC1; DOTA = O=C(O)CN1CCN(CC(=O)O)CCN(CC(=O)*)CCN(CC(=O)O)CC1; Trp(5-Cl) = N[C@@H](Cc1c[nH]c2ccc(Cl)cc12)C(=O)O; Pyridine(2,6-diCH2) = c1cc(C[*:1])nc(C[*:2])c1; Phe(3-Cl) = N[C@@H](Cc1cccc(Cl)c1)C(=O)O; Pro(4,4-F2) = O=C(O)[C@@H]1CC(F)(F)CN1; 1Nal = N[C@@H](Cc1cccc2ccccc12)C(=O)O; mXylylene = c1cc(C[*:1])cc(C[*:2])c1; X7 = c1cc(CSCCN[*:2])cc(C[*:1])c1; Hyp = O=C(O)[C@@H]1C[C@@H](O)CN1; Cha = N[C@@H](CC1CCCCC1)C(=O)O; Suc = O=C(CCC(=O)[*:2])[*:1]; hLeu = CC(C)CC[C@H](N)C(=O)O; hCys = N[C@@H](CCS)C(=O)O; αMeS = C[C@](N)(CO)C(=O)O; Api = NC1(C(=O)O)CCNCC1; Thp = NC1(C(=O)O)CCOCC1; Aib = CC(C)(N)C(=O)O
# Biological target: T1, GIPR (CHO-K1-hGIPR cells) (Homo sapiens, UniProt P48546)
# T1 construct: host or cells: CHO-K1
# T1 sequence (P48546 22-466): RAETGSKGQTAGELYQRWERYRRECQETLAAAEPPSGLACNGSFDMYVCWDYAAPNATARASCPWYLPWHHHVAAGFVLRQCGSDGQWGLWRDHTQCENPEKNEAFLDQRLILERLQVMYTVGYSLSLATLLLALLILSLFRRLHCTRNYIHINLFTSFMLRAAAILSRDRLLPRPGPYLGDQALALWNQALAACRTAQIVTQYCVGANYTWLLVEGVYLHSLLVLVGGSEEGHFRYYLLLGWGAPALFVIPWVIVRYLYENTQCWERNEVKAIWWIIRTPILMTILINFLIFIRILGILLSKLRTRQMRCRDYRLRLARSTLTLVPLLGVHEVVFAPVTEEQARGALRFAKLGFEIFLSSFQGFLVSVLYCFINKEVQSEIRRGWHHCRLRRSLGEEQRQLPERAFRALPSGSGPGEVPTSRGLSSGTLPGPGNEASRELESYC
# Assay: FACS binding assay
# Details: for IC50: read-out: pIC50 Category (converted)
# How it was run: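 CHO-K1 cells expressing human GIPR, washed in PBS/1% FCS, then stained with 1 μg/mL APC-streptavidin for 30 min on ice.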
# [1] = competition with 20 nM GIP-057, 4° C., 1 hour
# [2] = competition with 20 nM GIP-057, 4° C. for 1 hour
IC50 [1],IC50 [2],Molecule,also measured
< 10 nM,,"CC[C@H](C)[C@@H]1NC(=O)[C@H](CC(C)C)NC(=O)C2(CCOCC2)NC(=O)[C@@H](NC(=O)[C@@H](CC(C)C)NC(=O)[C@H](CCC(=O)O)NC(=O)[C@@H]2C[C@@H](O)CN2C(=O)[C@H](Cc2c[nH]c3ccc(Cl)cc23)NC(=O)[C@H](Cc2c[nH]c3ccccc23)NC(=O)[C@H](CC(N)=O)NC(C)=O)CSCc2cccc(n2)CSC[C@@H](C(N)=O)NC1=O [GIP-190, Ac-Asn-Trp-5Clw-Hyp-Glu-leu-[Cys(2Lut)-Thp-Leu-Ile-Cys]-NH2] (Ac-NW[Trp(5-Cl)][Hyp]E[dL]C[Thp]LIC-NH2; linker 7-11 via Pyridine(2,6-diCH2))",
,100 to 794 nM,"CC[C@H](C)[C@@H]1NC(=O)[C@H](CC(C)C)NC(=O)C2(CCN(C(=O)CN3CCN(CC(=O)O)CCN(CC(=O)O)CCN(CC(=O)O)CC3)CC2)NC(=O)[C@@H](NC(=O)[C@H](CCC(C)C)NC(=O)[C@H](CCC(=O)O)NC(=O)[C@@H]2CCCN2C(=O)[C@H](Cc2cccc3ccccc23)NC(=O)[C@H](Cc2c[nH]c3ccccc23)NC(=O)[C@H](CC(=O)O)NC(C)=O)CSCc2cccc(c2)CSC[C@@H](C(N)=O)NC1=O [GIP-400, Ac-Asp-Trp-1Ni-Pro-Glu-Hle-[Cys(3MeBn)-Apc(DOTA)-Leu-Ile-Cys]-NH2] (Ac-DW[1Nal]PE[hLeu]C[Api](DOTA)LIC-NH2; linker 7-11 via mXylylene)",
,< 10 nM,"CC[C@H](C)[C@@H]1NC(=O)[C@H](CC2CCCCC2)NC(=O)C2(CCOCC2)NC(=O)[C@@H](NC(=O)[C@@H](CC(C)C)NC(=O)[C@H](CCC(=O)O)NC(=O)[C@@H]2C[C@@H](O)CN2C(=O)[C@H](Cc2c[nH]c3ccc(Cl)cc23)NC(=O)[C@H](Cc2c[nH]c3ccccc23)NC(=O)[C@H](CC(=O)O)NC(C)=O)CSCc2cccc(n2)CSC[C@@H](C(N)=O)NC1=O [GIP-383, Ac-Asp-Trp-5Clw-Hyp-Glu-leu-[Cys(2Lut)-Thp-Cha-Ile-Cys]-NH2] (Ac-DW[Trp(5-Cl)][Hyp]E[dL]C[Thp][Cha]IC-NH2; linker 7-11 via Pyridine(2,6-diCH2))",
< 10 nM,,"CC[C@H](C)[C@@H]1NC(=O)[C@H](CC(C)C)NC(=O)[C@](C)(CO)NC(=O)[C@@H](NC(=O)[C@@H](CC(C)C)NC(=O)[C@H](CCC(=O)O)NC(=O)[C@@H]2CCCN2C(=O)[C@H](Cc2c[nH]c3ccc(Cl)cc23)NC(=O)[C@H](Cc2c[nH]c3ccccc23)NC(=O)[C@H](CC(=O)O)NC(=O)CCC(=O)NCCCOCCOCCOCCCNC(=O)CN2CCN(CC(=O)O)CCN(CC(=O)O)CCN(CC(=O)O)CC2)CSCc2cccc(c2)CSCCNC1=O [GIP-101, DOTA-Ttds-Asp-Trp-5Clw-Pro-Glu-leu-[Cys(3MeBn)-Ams-Leu-Ile-AET]] ({X3-Suc}-DW[Trp(5-Cl)]PE[dL]C[αMeS]LI; linker 7-C via X7)",
< 10 nM,,"CC[C@H](C)[C@@H]1NC(=O)[C@H](CC(C)C)NC(=O)C2(CCN(C(=O)CN3CCN(CC(=O)O)CCN(CC(=O)O)CCN(CC(=O)O)CC3)CC2)NC(=O)[C@@H](NC(=O)[C@@H](CC(C)C)NC(=O)[C@H](CCC(=O)O)NC(=O)[C@@H]2C[C@@H](O)CN2C(=O)[C@H](Cc2c[nH]c3ccc(Cl)cc23)NC(=O)[C@H](Cc2c[nH]c3ccccc23)NC(=O)[C@H](CC(=O)O)NC(C)=O)CSCc2cccc(n2)CSC[C@@H](C(N)=O)NC1=O [GIP-122, Ac-Asp-Trp-5Clw-Hyp-Glu-leu-[Cys(2Lut)-Apc(DOTA)-Leu-Ile-Cys]-NH2] (Ac-DW[Trp(5-Cl)][Hyp]E[dL]C[Api](DOTA)LIC-NH2; linker 7-11 via Pyridine(2,6-diCH2))",
< 10 nM,,"CC[C@H](C)[C@@H]1NC(=O)[C@H](CC(C)C)NC(=O)C2(CCOCC2)NC(=O)[C@@H](NC(=O)[C@@H](CC(C)C)NC(=O)[C@H](CCC(=O)O)NC(=O)[C@@H]2C[C@@H](O)CN2C(=O)[C@H](Cc2c[nH]c3ccc(Cl)cc23)NC(=O)[C@H](Cc2ccccc2)NC(=O)[C@H](CC(=O)O)NC(C)=O)CSCc2cccc(n2)CSC[C@@H](C(N)=O)NC1=O [GIP-224, Ac-Asp-Phe-5Clw-Hyp-Glu-leu-[Cys(2Lut)-Thp-Leu-Ile-Cys]-NH2] (Ac-DF[Trp(5-Cl)][Hyp]E[dL]C[Thp]LIC-NH2; linker 7-11 via Pyridine(2,6-diCH2))",
< 10 nM,,"CC[C@H](C)[C@@H]1NC(=O)[C@H](CC(C)C)NC(=O)C(C)(C)NC(=O)[C@@H](NC(=O)[C@H](CC(C)C)NC(=O)[C@H](CCC(=O)O)NC(=O)[C@@H]2CCCN2C(=O)[C@H](Cc2cccc3ccccc23)NC(=O)[C@H](Cc2c[nH]c3ccccc23)NC(=O)CCC(=O)O)CSCc2cccc(c2)CSC[C@@H](C(=O)NCCCOCCOCCOCCCNC(=O)CCC(=O)N[C@@H](CCCCNC(=O)CN2CCN(CC(=O)O)CCN(CC(=O)O)CCN(CC(=O)O)CC2)C(N)=O)NC1=O [GIP-085, HO-Succinyl-Trp-1Ni-Pro-Glu-Leu-[Cys(3MeBn)-Aib-Leu-Ile-Cys]-Ttds-Lys(DOTA)-NH2] (Suc-W[1Nal]PELC[Aib]LIC-X5; linker 6-10 via mXylylene)",
,10 to 79.4 nM,"CC[C@H](C)[C@@H]1NC(=O)[C@H](CC(C)C)NC(=O)C2(CCOCC2)NC(=O)[C@@H](NC(=O)[C@@H](CC(C)C)NC(=O)[C@H](Cc2ccccc2)NC(=O)[C@@H]2C[C@@H](O)CN2C(=O)[C@H](Cc2c[nH]c3ccc(Cl)cc23)NC(=O)[C@H](Cc2c[nH]c3ccccc23)NC(=O)[C@H](CC(=O)O)NC(C)=O)CSCc2cccc(n2)CSC[C@@H](C(N)=O)NC1=O [GIP-396, Ac-Asp-Trp-5Clw-Hyp-Phe-leu-[Cys(2Lut)-Thp-Leu-Ile-Cys]-NH2] (Ac-DW[Trp(5-Cl)][Hyp]F[dL]C[Thp]LIC-NH2; linker 7-11 via Pyridine(2,6-diCH2))",
< 10 nM,,"CC[C@H](C)[C@@H]1NC(=O)[C@H](CC(C)C)NC(=O)C2(CCOCC2)NC(=O)[C@@H](NC(=O)[C@@H](CC(C)C)NC(=O)[C@H](CCC(=O)O)NC(=O)[C@@H]2C[C@@H](O)CN2C(=O)[C@H](Cc2c[nH]c3ccc(Cl)cc23)NC(=O)[C@H](Cc2c[nH]c3ccccc23)NC(=O)[C@H](CC(=O)O)NC(C)=O)CSCc2cccc(n2)CSCC[C@@H](C(N)=O)NC1=O [GIP-201, Ac-Asp-Trp-5Clw-Hyp-Glu-leu-[Cys(2Lut)-Thp-Leu-Ile-Hcy]-NH2] (Ac-DW[Trp(5-Cl)][Hyp]E[dL]C[Thp]LI[hCys]-NH2; linker 7-11 via Pyridine(2,6-diCH2))",
,> 1000 nM,"CC[C@H](C)[C@@H]1NC(=O)[C@H](CC(C)C)NC(=O)[C@@H](C)NC(=O)[C@@H](NC(=O)[C@@H](CC(C)C)NC(=O)[C@H](CCC(=O)O)NC(=O)[C@@H]2CCCN2C(=O)[C@H](Cc2c[nH]c3ccccc23)NC(=O)[C@H](Cc2c[nH]c3ccccc23)NC(=O)CCC(=O)O)CSCc2cccc(c2)CSC[C@@H](C(=O)NCCCOCCOCCOCCCNC(=O)CCC(=O)N[C@@H](CCCCNC(=O)CN2CCN(CC(=O)O)CCN(CC(=O)O)CCN(CC(=O)O)CC2)C(N)=O)NC1=O [GIP-288, HO-Succinyl-Trp-Trp-Pro-Glu-leu-[Cys(3MeBn)-ala-Leu-Ile-Cys]-Ttds-Lys(DOTA)-NH2] (Suc-WWPE[dL]C[dA]LIC-X5; linker 6-10 via mXylylene)",
,10 to 79.4 nM,"CC[C@H](C)[C@@H]1NC(=O)[C@H](CC(C)C)NC(=O)C2(CCOCC2)NC(=O)[C@@H](NC(=O)[C@@H](CC(C)C)NC(=O)[C@H](CCC(=O)O)NC(=O)[C@@H]2C[C@@H](O)CN2C(=O)[C@H](Cc2c[nH]c3ccc(Cl)cc23)NC(=O)[C@H](Cc2c[nH]c3ccccc23)NC(=O)[C@H](CC(=O)O)NC(C)=O)CCSSCC[C@@H](C(N)=O)NC1=O [GIP-363, Ac-Asp-Trp-5Clw-Hyp-Glu-leu-[Hey-Thp-Leu-Ile-Hcy]-NH2] (Ac-DW[Trp(5-Cl)][Hyp]E[dL][hCys][Thp]LI[hCys]-NH2; disulfide 7-11)",
,> 1000 nM,"CC[C@H](C)[C@@H]1NC(=O)[C@H](CC(C)C)NC(=O)C(C)(C)NC(=O)[C@@H](NC(=O)[C@H](CC(C)C)NC(=O)[C@H](CCC(=O)O)NC(=O)[C@@H]2CC(F)(F)CN2C(=O)[C@H](Cc2cccc3ccccc23)NC(=O)[C@H](Cc2c[nH]c3ccccc23)NC(=O)[C@H](CC(=O)O)NC(C)=O)CSCc2cccc(c2)CSC[C@@H](C(N)=O)NC1=O [GIP-341, Ac-Asp-Trp-1Ni-4Dfp-Glu-Leu-[Cys(3MeBn)-Aib-Leu-Ile-Cys]-NH2] (Ac-DW[1Nal][Pro(4,4-F2)]ELC[Aib]LIC-NH2; linker 7-11 via mXylylene)",
,,HO-Succinyl-Trp-5Clw-Hyp-Glu-leu-[Cys(2Lut)-Apc(MeO2kDaPEGAc)-Leu-Ile-Cys]-APAc-Lys(DOTA)-NH2 [GIP-143],pIC50 Category [1]: B (pIC50 values between 7.1 and 8.0)
,100 to 794 nM,"CC[C@H](C)[C@@H]1NC(=O)[C@H](CC(C)C)NC(=O)C2(CCOCC2)NC(=O)[C@@H](NC(=O)[C@@H](CC(C)C)NC(=O)[C@H](CCC(=O)O)NC(=O)[C@@H]2C[C@@H](O)CN2C(=O)[C@H](Cc2cccc(Cl)c2)NC(=O)[C@H](Cc2c[nH]c3ccccc23)NC(=O)[C@H](CC(=O)O)NC(C)=O)CSCc2cccc(n2)CSC[C@@H](C(N)=O)NC1=O [GIP-320, Ac-Asp-Trp-Mcf-Hyp-Glu-leu-[Cys(2Lut)-Thp-Leu-Ile-Cys]-NH2] (Ac-DW[Phe(3-Cl)][Hyp]E[dL]C[Thp]LIC-NH2; linker 7-11 via Pyridine(2,6-diCH2))",
,> 1000 nM,CC[C@H](C)[C@@H]1NC(=O)[C@H](CC(C)C)NC(=O)[C@H](C)NC(=O)[C@@H](NC(=O)[C@H](CC(C)C)NC(=O)[C@H](CCC(=O)O)NC(=O)[C@@H]2CCCN2C(=O)[C@H](C)NC(=O)[C@H](Cc2c[nH]c3ccccc23)NC(=O)[C@H](CC(=O)O)NC(=O)[C@H](Cc2ccc(O)cc2)NC(=O)[C@@H](N)CCSC)CSCc2cccc(c2)CSC[C@@H](C(N)=O)NC1=O [GIP-334] (H-MYDWAPELCALIC-NH2; linker 9-13 via mXylylene),
